According to PubChem BioAssay (NCI):
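Cells were grown in 96-well plates and exposed to each compound for 48 hours at five concentrations; endpoints were interpolated linearly between bracketing concentrations, or set to the highest concentration if not reached. At the TGI there is no net growth.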

Assays:
Experiment in all cases: growth of human tumour cells (NCI), 48 h
786-0 renal = test system: 786-0 renal
A498 renal = test system: A498 renal
A549 NSCLC = test system: A549 NSCLC
ACHN renal = test system: ACHN renal
BT-549 breast = test system: BT-549 breast
CAKI-1 renal = test system: CAKI-1 renal
CCRF-CEM leukemia = test system: CCRF-CEM leukemia
COLO 205 colon = test system: COLO 205 colon
DU-145 prostate = test system: DU-145 prostate
EKVX NSCLC = test system: EKVX NSCLC
HCC-2998 colon = test system: HCC-2998 colon
HCT-116 colon = test system: HCT-116 colon
HCT-15 colon = test system: HCT-15 colon
HL-60(TB) leukemia = test system: HL-60(TB) leukemia
HOP-62 NSCLC = test system: HOP-62 NSCLC
HOP-92 NSCLC = test system: HOP-92 NSCLC
HS 578T breast = test system: HS 578T breast
HT29 colon = test system: HT29 colon
IGROV1 ovarian = test system: IGROV1 ovarian
K-562 leukemia = test system: K-562 leukemia
KM12 colon = test system: KM12 colon
LOX IMVI melanoma = test system: LOX IMVI melanoma
M14 melanoma = test system: M14 melanoma
MALME-3M melanoma = test system: MALME-3M melanoma
MCF7 breast = test system: MCF7 breast
MDA-MB-231 breast = test system: MDA-MB-231 breast
MDA-MB-435 = test system: MDA-MB-435
MDA-N = test system: MDA-N
MOLT-4 leukemia = test system: MOLT-4 leukemia
NCI-H226 lung = test system: NCI-H226 lung
NCI-H23 lung = test system: NCI-H23 lung
NCI-H460 lung = test system: NCI-H460 lung
NCI-H522 lung = test system: NCI-H522 lung
OVCAR-3 ovarian = test system: OVCAR-3 ovarian
OVCAR-5 ovarian = test system: OVCAR-5 ovarian
OVCAR-8 ovarian = test system: OVCAR-8 ovarian
PC-3 prostate = test system: PC-3 prostate
RPMI-8226 leukemia = test system: RPMI-8226 leukemia
RXF 393 renal = test system: RXF 393 renal
SF-268 CNS = test system: SF-268 CNS
SF-295 CNS = test system: SF-295 CNS
SF-539 CNS = test system: SF-539 CNS
SK-MEL-2 melanoma = test system: SK-MEL-2 melanoma
SK-MEL-28 melanoma = test system: SK-MEL-28 melanoma
SK-MEL-5 melanoma = test system: SK-MEL-5 melanoma
SK-OV-3 ovarian = test system: SK-OV-3 ovarian
SN12C renal = test system: SN12C renal
SNB-19 CNS = test system: SNB-19 CNS
SNB-75 CNS = test system: SNB-75 CNS
SR leukemia = test system: SR leukemia
SW-620 colon = test system: SW-620 colon
T-47D breast = test system: T-47D breast
TK-10 renal = test system: TK-10 renal
U251 CNS = test system: U251 CNS
UACC-257 melanoma = test system: UACC-257 melanoma
UACC-62 melanoma = test system: UACC-62 melanoma
UO-31 renal = test system: UO-31 renal

Q: What does the source list for COc1ccc(C2c3cc4c(cc3OC(NNc3ccccc3)C2C)OCO4)cc1 (configuration not stated)?
A: TGI (786-0 renal): 51.8 µM; TGI (A498 renal): 76.9 µM; TGI (A549 NSCLC): > 100 µM; TGI (ACHN renal): 49.5 µM; TGI (BT-549 breast): 76.1 µM; TGI (CAKI-1 renal): > 100 µM; TGI (CCRF-CEM leukemia): 40.5 µM; TGI (COLO 205 colon): 20.5 µM; TGI (DU-145 prostate): > 100 µM; TGI (EKVX NSCLC): 24.3 µM; TGI (HCC-2998 colon): 4.79 µM; TGI (HCT-116 colon): 43.2 µM; TGI (HCT-15 colon): > 100 µM; TGI (HL-60(TB) leukemia): 20.8 µM; TGI (HOP-62 NSCLC): 20.2 µM; TGI (HOP-92 NSCLC): 67.9 µM; TGI (HS 578T breast): > 100 µM; TGI (HT29 colon): 51.7 µM; TGI (IGROV1 ovarian): > 100 µM; TGI (K-562 leukemia): > 100 µM; TGI (KM12 colon): > 100 µM; TGI (LOX IMVI melanoma): > 100 µM; TGI (M14 melanoma): > 100 µM; TGI (MALME-3M melanoma): 52.9 µM; TGI (MCF7 breast): 44.7 µM; TGI (MDA-MB-231 breast): > 100 µM; TGI (MDA-MB-435): > 100 µM; TGI (MDA-N): > 100 µM; TGI (MOLT-4 leukemia): > 100 µM; TGI (NCI-H226 lung): > 100 µM; TGI (NCI-H23 lung): > 100 µM; TGI (NCI-H460 lung): > 100 µM; TGI (NCI-H522 lung): 94.6 µM; TGI (OVCAR-3 ovarian): 39.8 µM; TGI (OVCAR-5 ovarian): > 100 µM; TGI (OVCAR-8 ovarian): 63.5 µM; TGI (PC-3 prostate): > 100 µM; TGI (RPMI-8226 leukemia): > 100 µM; TGI (RXF 393 renal): 54.3 µM; TGI (SF-268 CNS): > 100 µM; TGI (SF-295 CNS): > 100 µM; TGI (SF-539 CNS): 6.55 µM; TGI (SK-MEL-2 melanoma): 98.1 µM; TGI (SK-MEL-28 melanoma): > 100 µM; TGI (SK-MEL-5 melanoma): 99.4 µM; TGI (SK-OV-3 ovarian): > 100 µM; TGI (SN12C renal): 50.8 µM; TGI (SNB-19 CNS): > 100 µM; TGI (SNB-75 CNS): > 100 µM; TGI (SR leukemia): 16.3 µM; TGI (SW-620 colon): > 100 µM; TGI (T-47D breast): > 100 µM; TGI (TK-10 renal): > 100 µM; TGI (U251 CNS): > 100 µM; TGI (UACC-257 melanoma): 86.3 µM; TGI (UACC-62 melanoma): 59.5 µM; TGI (UO-31 renal): > 100 µM
